# Earlier results in US11618772B2 (Kineta Chronic Pain, LLC, priority 2014, dated 2023).
# Biological target: T1, α9α10 nAChR (Rattus norvegicus, UniProt P43144+Q9JLB5)
# T1 construct: host or cells: oocytes
# Conditions: cited from earlier work
# T1 sequence (P43144 26-479 limits assumed): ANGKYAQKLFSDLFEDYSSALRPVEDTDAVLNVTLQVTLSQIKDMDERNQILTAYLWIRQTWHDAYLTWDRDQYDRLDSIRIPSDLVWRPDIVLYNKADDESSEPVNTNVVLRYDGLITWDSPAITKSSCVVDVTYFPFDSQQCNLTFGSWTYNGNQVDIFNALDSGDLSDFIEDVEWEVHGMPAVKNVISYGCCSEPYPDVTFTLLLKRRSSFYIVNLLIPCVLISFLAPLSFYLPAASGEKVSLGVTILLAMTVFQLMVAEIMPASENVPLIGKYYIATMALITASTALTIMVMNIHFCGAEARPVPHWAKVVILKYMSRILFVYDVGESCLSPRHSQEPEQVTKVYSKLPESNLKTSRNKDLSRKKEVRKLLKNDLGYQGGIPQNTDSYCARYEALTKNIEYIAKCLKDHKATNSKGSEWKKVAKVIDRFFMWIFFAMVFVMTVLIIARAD
# T1 sequence (Q9JLB5 25-447 limits assumed): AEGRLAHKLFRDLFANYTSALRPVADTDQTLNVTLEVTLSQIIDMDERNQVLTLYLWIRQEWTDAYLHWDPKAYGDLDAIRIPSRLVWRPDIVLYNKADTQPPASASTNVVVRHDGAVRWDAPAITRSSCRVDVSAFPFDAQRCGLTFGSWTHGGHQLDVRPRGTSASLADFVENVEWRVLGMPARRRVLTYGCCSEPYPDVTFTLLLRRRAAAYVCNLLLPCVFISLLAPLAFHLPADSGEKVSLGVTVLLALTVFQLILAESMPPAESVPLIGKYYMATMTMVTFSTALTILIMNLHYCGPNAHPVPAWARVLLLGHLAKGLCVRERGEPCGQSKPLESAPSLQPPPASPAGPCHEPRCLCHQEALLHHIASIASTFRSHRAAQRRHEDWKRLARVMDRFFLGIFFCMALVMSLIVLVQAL
sequence,measurement,value
GCCSDPRCRYRCR [RgIA],block of α9α10 nAChR,block α9α10 nAChR
